Results taken from ChEMBL document CHEMBL6134930, “Discovery of AB801, a Potent and Selective Inhibitor of AXL Receptor Tyrosine Kinase for Use in Cancer Therapy” (J Med Chem, 2025).

How the values were obtained:
[1] = biological target: T1, Tyrosine-protein kinase receptor UFO (Homo sapiens, UniProt P30530); test: Inhibition of human AXL measured after 150 mins by ATP-competitive HTRF based biochemical assay
T1 sequence (P30530 whole entry): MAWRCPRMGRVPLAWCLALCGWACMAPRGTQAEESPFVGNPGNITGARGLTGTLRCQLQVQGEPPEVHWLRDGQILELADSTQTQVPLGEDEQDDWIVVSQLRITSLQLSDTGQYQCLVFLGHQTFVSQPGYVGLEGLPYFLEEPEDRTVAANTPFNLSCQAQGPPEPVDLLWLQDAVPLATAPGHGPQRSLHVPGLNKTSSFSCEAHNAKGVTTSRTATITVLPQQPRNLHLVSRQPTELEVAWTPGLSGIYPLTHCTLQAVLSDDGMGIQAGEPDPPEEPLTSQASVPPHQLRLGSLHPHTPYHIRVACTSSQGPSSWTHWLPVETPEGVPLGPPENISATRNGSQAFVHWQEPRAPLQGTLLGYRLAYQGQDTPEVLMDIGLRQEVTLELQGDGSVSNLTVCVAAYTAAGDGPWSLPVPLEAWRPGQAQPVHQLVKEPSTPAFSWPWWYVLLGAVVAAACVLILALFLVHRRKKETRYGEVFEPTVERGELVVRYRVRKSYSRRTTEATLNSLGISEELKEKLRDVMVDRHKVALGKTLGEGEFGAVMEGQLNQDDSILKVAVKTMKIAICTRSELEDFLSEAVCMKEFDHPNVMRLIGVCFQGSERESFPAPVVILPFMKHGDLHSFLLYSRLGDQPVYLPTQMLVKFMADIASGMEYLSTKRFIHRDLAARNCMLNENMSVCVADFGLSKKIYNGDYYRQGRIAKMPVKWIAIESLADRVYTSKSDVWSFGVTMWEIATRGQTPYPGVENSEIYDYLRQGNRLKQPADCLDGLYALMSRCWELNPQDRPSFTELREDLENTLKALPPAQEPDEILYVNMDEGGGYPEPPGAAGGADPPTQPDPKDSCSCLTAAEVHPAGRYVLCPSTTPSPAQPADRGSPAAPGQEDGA

[2] = biological target: T1, Tyrosine-protein kinase receptor UFO; test: Binding affinity to AXL (unknown origin) expressed in HEK293 cells transfected with Nano-Luc fusion vector assessed as dissociation constant by measuring decrease in BRET signal preincubated for 1 hr followed by K-5 NanoBRET tracer addition incubated for 2 hrs; format: cell-based
[3] = Metabolic stability in rat hepatocytes assessed as intrinsic clearance measured per 10^6 cells; format: ADME, cell-based, Hepatocyte; details: read-out: CLH
[4] = AUCinf in Sprague-Dawley rat at 2 mg/kg, po measured up to 8 hrs by LC-MS/MS analysis; format: ADME, organism-based; details: in vivo
[5] = Metabolic stability in human hepatocytes assessed as intrinsic clearance measured per 10^6 cells; format: ADME, cell-based, Hepatocyte; details: read-out: CLH
[6] = Efflux ratio in human Caco-2 cells; format: ADME, cell-based
[7] = biological target: T1, Tyrosine-protein kinase receptor UFO; test: Inhibition of autophosphorylation AXL (unknown origin) expressed in HEK293 cells assessed as NanoLuc activity associated with phosphorylated proteins measured after 1 hr incubation by intracellular pAXL-ELISA; format: cell-based
[8] = Clearance in Sprague-Dawley rat at 0.5 mg/kg, iv measured up to 24 hrs by LC-MS/MS analysis; format: ADME, organism-based; details: in vivo
[9] = Apparent permeability of compound from apical to basolateral side in human Caco-2 cells; format: ADME, cell-based; details: read-out: permeability
[10] = biological target: hERG (KCNH2) (Homo sapiens, UniProt Q12809); test: Inhibition of hERG at 10 uM by high throughput cell based patch clamp assay; format: toxicity
Sequence of hERG (KCNH2) (Q12809 whole entry): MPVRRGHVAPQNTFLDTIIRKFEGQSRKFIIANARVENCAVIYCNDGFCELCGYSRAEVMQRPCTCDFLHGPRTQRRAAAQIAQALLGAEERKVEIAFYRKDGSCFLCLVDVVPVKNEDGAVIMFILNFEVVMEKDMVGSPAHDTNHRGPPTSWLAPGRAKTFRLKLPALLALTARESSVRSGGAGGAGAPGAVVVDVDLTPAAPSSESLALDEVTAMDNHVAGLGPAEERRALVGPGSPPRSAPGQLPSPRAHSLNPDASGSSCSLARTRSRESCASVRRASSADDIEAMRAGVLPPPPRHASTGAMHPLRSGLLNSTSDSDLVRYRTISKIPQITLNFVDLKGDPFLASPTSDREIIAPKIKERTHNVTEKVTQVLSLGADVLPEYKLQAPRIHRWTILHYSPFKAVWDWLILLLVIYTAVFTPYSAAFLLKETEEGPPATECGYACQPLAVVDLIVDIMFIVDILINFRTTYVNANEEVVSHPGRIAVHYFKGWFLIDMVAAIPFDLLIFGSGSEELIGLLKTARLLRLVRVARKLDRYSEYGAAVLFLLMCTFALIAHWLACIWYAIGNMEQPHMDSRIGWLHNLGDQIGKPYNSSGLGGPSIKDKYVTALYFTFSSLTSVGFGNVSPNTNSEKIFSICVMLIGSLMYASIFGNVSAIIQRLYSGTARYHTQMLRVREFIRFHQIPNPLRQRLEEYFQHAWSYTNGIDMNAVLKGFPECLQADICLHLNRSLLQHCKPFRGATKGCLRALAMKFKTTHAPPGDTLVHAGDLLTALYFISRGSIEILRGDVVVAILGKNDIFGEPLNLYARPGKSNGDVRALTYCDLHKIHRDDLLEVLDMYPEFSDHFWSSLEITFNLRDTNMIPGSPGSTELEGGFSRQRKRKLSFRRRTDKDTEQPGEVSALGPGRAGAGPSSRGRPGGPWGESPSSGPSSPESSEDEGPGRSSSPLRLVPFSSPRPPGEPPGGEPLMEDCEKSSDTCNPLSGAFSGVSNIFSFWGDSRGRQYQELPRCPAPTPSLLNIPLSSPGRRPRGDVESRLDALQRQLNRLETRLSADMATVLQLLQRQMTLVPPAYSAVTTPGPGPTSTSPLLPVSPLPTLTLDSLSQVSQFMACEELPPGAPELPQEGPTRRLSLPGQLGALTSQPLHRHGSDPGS

Compound	IC50 [1]	Kd [2]	hepatocyte CLint [3]	AUC(0-inf) [4]	hepatocyte CLint [5]	efflux ratio [6]	IC50 [7]	clearance [8]	Papp A→B [9]	inhibition at 10 µM [10]
O=S1(=O)CCCN1c1ccc(-c2n[nH]c3ncc(-c4ccc5c(c4)CC[C@@H](N4C6COCC4C6)CC5)cc23)cc1	0.013 µM	0.051 µM	< 2.7 µL/min/1e6 cells	0.039 µg·h/mL	< 2.7 µL/min/1e6 cells	–	–	–	–	–
O=C1OCCN1c1ccc(-c2n[nH]c3ncc(-c4ccc5c(c4)CC[C@@H](N4C6COCC4C6)CC5)cc23)cc1	0.015 µM	0.027 µM	4.3 µL/min/1e6 cells	1.5 µg·h/mL	< 2.7 µL/min/1e6 cells	3.3	0.39 µM	0.49 L/h/kg	80 nm/s	44%
CP(C)(=O)c1ccc(-c2n[nH]c3ncc(-c4ccc5c(c4)CCC(N4C6COCC4C6)CC5)cc23)cc1 (racemic)	–	0.17 µM	–	–	–	–	–	–	–	–
Cc1cccnc1-c1ccc(-c2n[nH]c3ncc(-c4ccc5c(c4)CC[C@@H](N4C[C@@H]6C[C@H]4CO6)CC5)cc23)cc1	0.0018 µM	–	13 µL/min/1e6 cells	–	< 2.7 µL/min/1e6 cells	–	0.057 µM	–	–	–
Cn1ccnc1-c1ccc(-c2n[nH]c3ncc(-c4ccc5c(c4)CC[C@@H](N4C6COCC4C6)CC5)cc23)cc1	0.00063 µM	0.0019 µM	16 µL/min/1e6 cells	0.16 µg·h/mL	< 2.7 µL/min/1e6 cells	18	–	–	–	–
Cn1nncc1-c1ccc(-c2n[nH]c3ncc(-c4ccc5c(c4)CC[C@@H](N4C6COCC4C6)CC5)cc23)cc1	0.0089 µM	0.091 µM	–	–	–	–	–	–	–	–
N#Cc1cccnc1-c1ccc(-c2n[nH]c3ncc(-c4ccc5c(c4)CC[C@@H](N4C6COCC4C6)CC5)cc23)cc1	0.006 µM	–	< 2.7 µL/min/1e6 cells	–	< 2.7 µL/min/1e6 cells	–	0.22 µM	–	–	–
c1cncc(-c2ccc(-c3n[nH]c4ncc(-c5ccc6c(c5)CC[C@@H](N5C7COCC5C7)CC6)cc34)cc2)c1	0.019 µM	0.41 µM	–	–	–	–	–	–	–	–
c1cc2c(cc1-c1cnc3[nH]nc(-c4ccc(N5CCOCC5)cc4)c3c1)CC[C@@H](N1C3COCC1C3)CC2	0.066 µM	0.19 µM	–	–	–	–	–	–	–	–
COCCOc1ccc(-c2n[nH]c3ncc(-c4ccc5c(c4)CC[C@@H](N4C6COCC4C6)CC5)cc23)cc1	0.012 µM	0.066 µM	9.1 µL/min/1e6 cells	4.2 µg·h/mL	14 µL/min/1e6 cells	0.93	–	0.9 L/h/kg	170 nm/s	84%
CO[C@H]1C[C@@H](N[C@H]2CCc3ccc(-c4cnc5[nH]nc(-c6ccc(-c7ncccc7C)cc6)c5c4)cc3CC2)C1	0.0034 µM	–	6.4 µL/min/1e6 cells	–	< 2.7 µL/min/1e6 cells	–	0.31 µM	–	–	–
FC(F)(F)c1cccnc1-c1ccc(-c2n[nH]c3ncc(-c4ccc5c(c4)CC[C@@H](N4C6COCC4C6)CC5)cc23)cc1	0.0082 µM	–	< 2.7 µL/min/1e6 cells	–	< 2.7 µL/min/1e6 cells	–	0.73 µM	–	–	–
Cc1cccnc1-c1ccc(-c2n[nH]c3ncc(-c4ccc5c(c4)CC[C@@](C)(N4CCC[C@H]4C)CC5)cc23)cc1	0.00075 µM	–	< 2.7 µL/min/1e6 cells	0.38 µg·h/mL	< 2.7 µL/min/1e6 cells	–	0.013 µM	–	–	–
c1cc2c(cc1-c1cnc3[nH]nc(-c4ccc(N5C[C@H]6C[C@@H]5CO6)cc4)c3c1)CC[C@@H](N1C3COCC1C3)CC2	0.028 µM	0.13 µM	12 µL/min/1e6 cells	2.9 µg·h/mL	7.2 µL/min/1e6 cells	1.2	–	2.3 L/h/kg	67 nm/s	–
O=C1CCCN1c1ccc(-c2n[nH]c3ncc(-c4ccc5c(c4)CC[C@@H](N4C6COCC4C6)CC5)cc23)cc1	0.06 µM	0.089 µM	–	–	–	–	–	–	–	–
CS(=O)(=O)c1ccc(-c2n[nH]c3ncc(-c4ccc5c(c4)CC[C@@H](N4C6COCC4C6)CC5)cc23)cc1	0.0038 µM	0.013 µM	9.8 µL/min/1e6 cells	0.12 µg·h/mL	5.8 µL/min/1e6 cells	–	–	–	–	–
c1cc2c(cc1-c1cnc3[nH]nc(-c4ccc5c(c4)OCCO5)c3c1)CCC(N1C3COCC1C3)CC2 (racemic)	0.017 µM	0.069 µM	46 µL/min/1e6 cells	–	16 µL/min/1e6 cells	–	–	–	–	–
c1cc2c(cc1-c1cnc3[nH]nc(-c4ccc(N5C[C@@H]6C[C@H]5CO6)cc4)c3c1)CC[C@@H](N1C3COCC1C3)CC2	0.046 µM	0.14 µM	–	–	–	–	–	–	–	–
c1cc2c(cc1-c1cnc3[nH]nc(-c4ccc(N5CC6(COC6)C5)cc4)c3c1)CC[C@@H](N1C3COCC1C3)CC2	0.027 µM	0.12 µM	–	–	–	–	–	–	–	–
COc1cccnc1-c1ccc(-c2n[nH]c3ncc(-c4ccc5c(c4)CC[C@@H](N4C6COCC4C6)CC5)cc23)cc1	0.0024 µM	–	16 µL/min/1e6 cells	–	13 µL/min/1e6 cells	–	0.12 µM	–	–	–
CN(C)S(=O)(=O)c1ccc(-c2n[nH]c3ncc(-c4ccc5c(c4)CC[C@@H](N4C6COCC4C6)CC5)cc23)cc1	0.0026 µM	0.015 µM	110 µL/min/1e6 cells	–	36 µL/min/1e6 cells	–	–	–	–	–
Cc1cccnc1-c1ccc(-c2n[nH]c3ncc(-c4ccc5c(c4)CC[C@@H](N[C@H]4CCCOC4)CC5)cc23)cc1	0.0026 µM	–	12 µL/min/1e6 cells	–	5.8 µL/min/1e6 cells	–	0.1 µM	–	–	–
c1cc(-c2n[nH]c3ncc(-c4ccc5c(c4)CCC(N4C6COCC4C6)CC5)cc23)ccn1 (racemic)	0.02 µM	0.038 µM	13 µL/min/1e6 cells	0.13 µg·h/mL	8.7 µL/min/1e6 cells	–	–	–	–	–
Cn1nccc1-c1ccc(-c2n[nH]c3ncc(-c4ccc5c(c4)CC[C@@H](N4C6COCC4C6)CC5)cc23)cc1	0.0039 µM	0.031 µM	–	–	–	–	–	–	–	–
COCCOc1cccnc1-c1ccc(-c2n[nH]c3ncc(-c4ccc5c(c4)CC[C@@H](N4C6COCC4C6)CC5)cc23)cc1	0.0013 µM	–	16 µL/min/1e6 cells	–	3.2 µL/min/1e6 cells	–	0.033 µM	–	–	–
c1ccc(-c2ccc(-c3n[nH]c4ncc(-c5ccc6c(c5)CC[C@@H](N5C7COCC5C7)CC6)cc34)cc2)nc1	0.005 µM	0.075 µM	< 2.7 µL/min/1e6 cells	2.8 µg·h/mL	< 2.7 µL/min/1e6 cells	–	1.7 µM	–	–	–
Cn1cc(-c2ccc(-c3n[nH]c4ncc(-c5ccc6c(c5)CCC(N5C7COCC5C7)CC6)cc34)cc2)cn1 (racemic)	0.034 µM	2.2 µM	–	–	–	–	–	–	–	–
Cn1ncnc1-c1ccc(-c2n[nH]c3ncc(-c4ccc5c(c4)CC[C@@H](N4C6COCC4C6)CC5)cc23)cc1	0.0027 µM	0.0071 µM	5 µL/min/1e6 cells	0.41 µg·h/mL	< 2.7 µL/min/1e6 cells	5.7	–	–	–	–
CCc1cccnc1-c1ccc(-c2n[nH]c3ncc(-c4ccc5c(c4)CC[C@@H](N4C6COCC4C6)CC5)cc23)cc1	0.0014 µM	–	30 µL/min/1e6 cells	–	6.3 µL/min/1e6 cells	–	0.19 µM	–	–	–
